Experimental data as given in PMC8237303 (Heliyon, 2021).

What was measured:
[1] = biological target: Dopamine D4.2 receptor (Human) (Homo sapiens, UniProt P21917, DEL265-296); assay: [3H]-Spiperone binding assay; conditions: 0.1 mM l-menthol; Human recombinant
[2] = test system: Ca channel (Type L, Phenylalkylamine); assay: [3H]-; assay type: binding; conditions: 0.1 mM l-menthol; Rat cerebral cortex
[3] = test system: Bombesin receptor (Non-selective); assay: [125I]-Bombesin binding assay; conditions: 0.1 mM l-menthol; Rat whole brain
[4] = test system: GABA A receptor (Picrotoxin site); assay: [3H]-EBOB binding assay; design: species or system Rat
[5] = biological target: Angiotensin AT1 receptor (Human) (Homo sapiens, UniProt P30556); assay: [125I]-Angiotensin II; assay type: binding; conditions: 0.1 mM l-menthol; Human recombinant
[6] = biological target: Vasopressin V2 receptor (Human) (Homo sapiens, UniProt P30518); assay: [3H]-Vasopressin, 8-L-Arginine binding assay; conditions: 0.1 mM l-menthol; Human recombinant
[7] = biological target: Cannabinoid CB1 receptor (Human) (Homo sapiens, UniProt P21554); assay: [3H]-CP-55,940 binding assay; conditions: 0.1 mM l-menthol; Human recombinant
[8] = biological target: Cannabinoid CB2 receptor (Human) (Homo sapiens, UniProt P34972); assay: [3H]-CP-55,940 binding assay; conditions: 0.1 mM l-menthol; Human recombinant
[9] = biological target: Norepinephrine transporter (Human) (Homo sapiens, UniProt P23975); assay: [3H]-Nisoxetine hydrochloride binding assay; conditions: 0.1 mM l-menthol; Human recombinant
[10] = biological target: Bradykinin B2 receptor (Human) (Homo sapiens, UniProt P30411); assay: [3H]-Bradykinin binding assay; conditions: 0.1 mM l-menthol; Human recombinant
Monoamine transporter = assay: [3H]-α-Dihydrotetrabenazine binding assay; conditions: 0.1 mM l-menthol; Rabbit platelet
[11] = biological target: Dopamine D3 receptor (Human) (Homo sapiens, UniProt P35462); assay: R-; assay type: binding; conditions: 0.1 mM l-menthol; Human recombinant
[12] = biological target: Neurokinin NK2 receptor (Human) (Homo sapiens, UniProt P21452); assay: [3H]-SR 48968 binding assay; conditions: 0.1 mM l-menthol; Human recombinant
[13] = biological target: Neurokinin NK3 receptor (Human) (Homo sapiens, UniProt P29371); assay: [125I]-Neurokinin B; assay type: binding; conditions: 0.1 mM l-menthol; Human recombinant
CCK B receptor (Human) = CCK B receptor (Human) (Homo sapiens, UniProt P32239); assay: [125I]-Cholecystokinin Octapeptide binding assay; conditions: 0.1 mM l-menthol; Human recombinant
K Channel SkCa = assay: [125I]-Apamin binding assay; conditions: 0.1 mM l-menthol; Rat whole brain
[14] = biological target: Adenosine A1 receptor (Human) (Homo sapiens, UniProt P30542); assay: [3H]8-Cyclopentyl-1,3-dipropylxanthine; assay type: binding; conditions: 0.1 mM l-menthol; Human recombinant
α1B-Adrenergic receptor = α1B-Adrenergic receptor (Rattus norvegicus, UniProt P15823); assay: [3H]-Prazosin binding assay; conditions: 0.1 mM l-menthol; Rat liver
[15] = biological target: Prostanoid EP2 receptor (Human) (Homo sapiens, UniProt P43116); assay: [3H]-Prostaglandin E2 binding assay; conditions: 0.1 mM l-menthol; Human recombinant
[16] = biological target: Opiate δ receptor (Human) (Homo sapiens, UniProt P41143); assay: [3H]-Naltrindole binding assay; conditions: 0.1 mM l-menthol; Human recombinant
[17] = test system: GABA A receptor (Agonist site); assay: [3H]-Muscimol binding assay; conditions: 0.1 mM l-menthol; Rat cerebellum
[18] = biological target: β1-Adrenergic receptor (Human) (Homo sapiens, UniProt P08588); assay: [3H]-; assay type: binding; conditions: 0.1 mM l-menthol; Human recombinant
[19] = biological target: β2-Adrenergic receptor (Human) (Homo sapiens, UniProt P07550); assay: [3H]-; assay type: binding; conditions: 0.1 mM l-menthol; Human recombinant
Ca Channel (Type N) = Ca Channel (Type N) (Rattus norvegicus, UniProt Q02294); assay type: binding
CCK A receptor (Human) = CCK A receptor (Human) (Homo sapiens, UniProt P32238); assay: [125I]-Cholecystokinin Octapeptide binding assay; conditions: 0.1 mM l-menthol; Human recombinant
CRF1 receptor (Human) = biological target: T1, CRF1 receptor (Human) (Homo sapiens, UniProt P34998); assay: [125I]-Corticotropin Releasing Factor; assay type: binding; conditions: 0.1 mM l-menthol; Human recombinant
T1 sequence (P34998 24-415): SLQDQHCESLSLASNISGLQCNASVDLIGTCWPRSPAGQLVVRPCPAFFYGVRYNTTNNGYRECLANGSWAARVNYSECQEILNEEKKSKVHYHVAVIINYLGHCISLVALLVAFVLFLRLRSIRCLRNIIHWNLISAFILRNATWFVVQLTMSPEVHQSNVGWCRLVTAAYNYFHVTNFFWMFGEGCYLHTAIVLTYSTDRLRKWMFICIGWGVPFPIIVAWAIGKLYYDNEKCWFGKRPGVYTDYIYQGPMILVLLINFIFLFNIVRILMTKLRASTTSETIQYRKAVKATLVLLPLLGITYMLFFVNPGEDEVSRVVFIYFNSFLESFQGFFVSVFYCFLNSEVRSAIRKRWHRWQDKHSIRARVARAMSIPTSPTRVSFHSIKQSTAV

[20] = biological target: Dopamine D2 receptor short isoform (Human) (Homo sapiens, UniProt P14416); assay: [3H]-Spiperone binding assay; conditions: 0.1 mM l-menthol; Human recombinant
[21] = biological target: Dopamine D5 receptor (Human) (Homo sapiens, UniProt P21918); assay: [3H]SCH 23390 binding assay; conditions: 0.1 mM l-menthol; Human recombinant
[22] = test system: Glutamate receptor (AMPA); assay: D,L-alpha-[3H]-Amino-3-Hydroxy-Methylisoxazole-4-Propionic Acid; assay type: binding; conditions: 0.1 mM l-menthol; Rat cerebral cortex
[23] = test system: Glycine receptor (Strychnine sensitive); assay type: binding; conditions: 0.1 mM l-menthol; Rat spinal cord
[24] = biological target: Muscarinic M1 receptor (Human) (Homo sapiens, UniProt P11229); assay: [3H]-Scopolamine Methyl Chloride binding assay; conditions: 0.1 mM l-menthol; Human recombinant
[25] = biological target: Muscarinic M3 receptor (Human) (Homo sapiens, UniProt P20309); assay type: binding; conditions: 0.1 mM l-menthol; Human recombinant
[26] = biological target: Muscarinic M5 receptor (Human) (Homo sapiens, UniProt P08912); assay: [3H]-Scopolamine Methyl Chloride binding assay; conditions: 0.1 mM l-menthol; Human recombinant
[27] = biological target: Neurotensin NT1 receptor (Human) (Homo sapiens, UniProt P30989); assay: [125I]-Neurotensin binding assay; conditions: 0.1 mM l-menthol; Human recombinant
PAF receptor = assay: 1-O-Hexadecyl-[3H]-Platelet Activating Factor; assay type: binding; conditions: 0.1 mM l-menthol; Rabbit platelet
Vasopressin V1 receptor = Vasopressin V1 receptor (Rattus norvegicus, UniProt P30560); assay: [3H]-Vasopressin, 8-L-Arginine binding assay; conditions: 0.1 mM l-menthol; Rat liver
[28] = biological target: Vasopressin V1B receptor (Human) (Homo sapiens, UniProt P47901); assay: [3H]-Vasopressin, 8-L-Arginine binding assay; conditions: 0.1 mM l-menthol; Human recombinant
Vasopressin V1B receptor (Human), sequence (P47901 whole entry): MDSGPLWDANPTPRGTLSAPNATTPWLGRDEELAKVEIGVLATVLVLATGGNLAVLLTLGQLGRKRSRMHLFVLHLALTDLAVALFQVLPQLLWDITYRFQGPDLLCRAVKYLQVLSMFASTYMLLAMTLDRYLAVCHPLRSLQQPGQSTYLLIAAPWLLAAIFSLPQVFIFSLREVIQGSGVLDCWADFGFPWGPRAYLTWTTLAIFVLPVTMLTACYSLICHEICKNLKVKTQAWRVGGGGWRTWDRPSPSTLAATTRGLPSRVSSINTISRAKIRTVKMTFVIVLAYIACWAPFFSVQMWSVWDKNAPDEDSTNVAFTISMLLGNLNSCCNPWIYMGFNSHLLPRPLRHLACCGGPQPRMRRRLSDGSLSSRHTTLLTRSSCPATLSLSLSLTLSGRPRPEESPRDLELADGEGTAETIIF

Cannabinoid CB1 receptor (Human), sequence (P21554 whole entry): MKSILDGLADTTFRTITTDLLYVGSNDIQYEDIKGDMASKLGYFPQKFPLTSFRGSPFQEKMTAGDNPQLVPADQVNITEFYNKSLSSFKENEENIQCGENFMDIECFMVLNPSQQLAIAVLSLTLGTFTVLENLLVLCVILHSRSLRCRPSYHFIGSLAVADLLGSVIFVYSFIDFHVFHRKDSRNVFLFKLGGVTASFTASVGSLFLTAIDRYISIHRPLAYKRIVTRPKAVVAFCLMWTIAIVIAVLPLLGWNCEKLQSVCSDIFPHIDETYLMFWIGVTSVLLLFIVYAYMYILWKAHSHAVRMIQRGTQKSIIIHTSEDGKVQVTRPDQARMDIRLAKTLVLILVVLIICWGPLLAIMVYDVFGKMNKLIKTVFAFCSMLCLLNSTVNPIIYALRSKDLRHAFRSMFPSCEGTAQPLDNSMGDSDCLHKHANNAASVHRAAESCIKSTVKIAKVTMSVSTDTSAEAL
Adenosine A1 receptor (Human), sequence (P30542 whole entry): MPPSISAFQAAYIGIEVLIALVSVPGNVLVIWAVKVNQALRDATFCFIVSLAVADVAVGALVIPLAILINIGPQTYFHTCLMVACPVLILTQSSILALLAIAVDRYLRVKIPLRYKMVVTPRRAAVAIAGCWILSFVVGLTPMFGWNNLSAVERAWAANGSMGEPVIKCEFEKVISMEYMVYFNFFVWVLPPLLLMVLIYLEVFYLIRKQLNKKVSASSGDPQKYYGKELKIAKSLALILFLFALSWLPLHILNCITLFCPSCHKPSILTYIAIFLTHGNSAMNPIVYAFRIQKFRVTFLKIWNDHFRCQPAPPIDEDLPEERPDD
Muscarinic M5 receptor (Human), sequence (P08912 whole entry): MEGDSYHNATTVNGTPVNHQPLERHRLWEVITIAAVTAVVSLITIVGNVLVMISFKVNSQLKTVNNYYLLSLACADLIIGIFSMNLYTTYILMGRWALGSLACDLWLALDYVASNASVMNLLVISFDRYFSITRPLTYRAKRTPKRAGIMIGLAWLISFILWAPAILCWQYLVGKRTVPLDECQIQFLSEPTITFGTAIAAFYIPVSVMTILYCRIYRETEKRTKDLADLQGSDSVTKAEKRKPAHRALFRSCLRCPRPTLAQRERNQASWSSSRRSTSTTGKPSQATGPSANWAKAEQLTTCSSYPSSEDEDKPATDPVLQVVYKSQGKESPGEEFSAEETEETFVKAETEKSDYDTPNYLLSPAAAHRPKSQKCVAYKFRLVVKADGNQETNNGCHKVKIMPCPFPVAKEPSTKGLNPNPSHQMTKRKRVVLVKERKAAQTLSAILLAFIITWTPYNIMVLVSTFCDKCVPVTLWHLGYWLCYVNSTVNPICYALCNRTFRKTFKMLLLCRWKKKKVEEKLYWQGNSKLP
CCK A receptor (Human), sequence (P32238 whole entry): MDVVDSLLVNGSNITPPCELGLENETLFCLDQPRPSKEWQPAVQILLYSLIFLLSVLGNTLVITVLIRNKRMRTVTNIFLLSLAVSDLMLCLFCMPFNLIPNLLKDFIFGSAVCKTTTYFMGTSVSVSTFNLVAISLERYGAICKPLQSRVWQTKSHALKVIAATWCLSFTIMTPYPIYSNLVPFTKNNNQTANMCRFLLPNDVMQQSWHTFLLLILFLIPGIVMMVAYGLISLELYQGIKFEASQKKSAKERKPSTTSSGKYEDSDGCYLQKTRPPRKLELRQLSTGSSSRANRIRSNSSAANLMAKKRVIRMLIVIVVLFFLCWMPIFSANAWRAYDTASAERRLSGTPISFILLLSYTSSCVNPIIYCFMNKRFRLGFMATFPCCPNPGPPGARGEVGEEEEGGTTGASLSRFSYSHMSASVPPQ
Neurokinin NK2 receptor (Human), sequence (P21452 whole entry): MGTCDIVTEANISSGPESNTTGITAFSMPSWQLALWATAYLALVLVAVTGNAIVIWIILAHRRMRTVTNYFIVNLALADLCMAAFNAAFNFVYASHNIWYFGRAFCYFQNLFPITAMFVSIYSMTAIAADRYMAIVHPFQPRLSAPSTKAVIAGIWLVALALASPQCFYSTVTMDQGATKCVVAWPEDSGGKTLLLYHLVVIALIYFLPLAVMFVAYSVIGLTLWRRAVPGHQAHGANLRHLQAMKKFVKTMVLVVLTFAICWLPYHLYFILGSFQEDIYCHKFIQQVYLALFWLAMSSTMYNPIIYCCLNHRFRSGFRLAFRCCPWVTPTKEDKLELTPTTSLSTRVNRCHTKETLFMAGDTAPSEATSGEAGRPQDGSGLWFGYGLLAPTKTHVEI
β2-Adrenergic receptor (Human), sequence (P07550 whole entry): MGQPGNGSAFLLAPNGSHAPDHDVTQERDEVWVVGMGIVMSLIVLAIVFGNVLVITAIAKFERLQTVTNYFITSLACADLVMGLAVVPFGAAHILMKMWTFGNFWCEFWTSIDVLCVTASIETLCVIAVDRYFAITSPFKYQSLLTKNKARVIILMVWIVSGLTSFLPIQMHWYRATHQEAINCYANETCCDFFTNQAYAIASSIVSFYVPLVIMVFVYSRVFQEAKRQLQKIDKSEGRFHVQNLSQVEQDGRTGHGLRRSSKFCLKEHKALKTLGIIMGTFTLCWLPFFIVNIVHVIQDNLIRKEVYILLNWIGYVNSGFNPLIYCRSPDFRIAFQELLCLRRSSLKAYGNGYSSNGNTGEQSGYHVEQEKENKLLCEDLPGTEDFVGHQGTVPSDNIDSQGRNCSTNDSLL
CCK B receptor (Human), sequence (P32239 whole entry): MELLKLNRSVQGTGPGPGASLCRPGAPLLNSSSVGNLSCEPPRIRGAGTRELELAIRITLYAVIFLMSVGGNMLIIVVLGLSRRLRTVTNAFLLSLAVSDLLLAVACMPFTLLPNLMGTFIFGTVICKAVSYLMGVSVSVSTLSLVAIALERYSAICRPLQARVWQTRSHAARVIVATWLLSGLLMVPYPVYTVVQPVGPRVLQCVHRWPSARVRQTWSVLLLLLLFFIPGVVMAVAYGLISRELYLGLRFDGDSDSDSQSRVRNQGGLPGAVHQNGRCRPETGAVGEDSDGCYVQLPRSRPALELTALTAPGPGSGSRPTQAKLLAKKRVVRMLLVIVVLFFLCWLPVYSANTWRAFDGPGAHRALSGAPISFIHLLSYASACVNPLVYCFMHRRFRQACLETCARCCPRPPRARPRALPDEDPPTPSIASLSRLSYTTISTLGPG
Dopamine D2 receptor short isoform (Human), sequence (P14416 1-414 isoform P14416-2): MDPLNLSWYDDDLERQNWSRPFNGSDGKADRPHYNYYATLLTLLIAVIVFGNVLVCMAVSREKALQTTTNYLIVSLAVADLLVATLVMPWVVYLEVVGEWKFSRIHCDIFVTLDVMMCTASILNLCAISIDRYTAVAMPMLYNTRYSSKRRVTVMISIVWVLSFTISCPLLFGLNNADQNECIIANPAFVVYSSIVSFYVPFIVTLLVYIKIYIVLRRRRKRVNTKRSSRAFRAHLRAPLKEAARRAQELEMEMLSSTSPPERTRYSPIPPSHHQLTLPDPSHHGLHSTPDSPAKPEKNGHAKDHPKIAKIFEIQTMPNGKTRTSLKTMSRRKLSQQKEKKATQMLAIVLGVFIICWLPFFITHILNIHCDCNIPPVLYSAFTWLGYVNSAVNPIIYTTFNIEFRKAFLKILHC
Neurotensin NT1 receptor (Human), sequence (P30989 whole entry): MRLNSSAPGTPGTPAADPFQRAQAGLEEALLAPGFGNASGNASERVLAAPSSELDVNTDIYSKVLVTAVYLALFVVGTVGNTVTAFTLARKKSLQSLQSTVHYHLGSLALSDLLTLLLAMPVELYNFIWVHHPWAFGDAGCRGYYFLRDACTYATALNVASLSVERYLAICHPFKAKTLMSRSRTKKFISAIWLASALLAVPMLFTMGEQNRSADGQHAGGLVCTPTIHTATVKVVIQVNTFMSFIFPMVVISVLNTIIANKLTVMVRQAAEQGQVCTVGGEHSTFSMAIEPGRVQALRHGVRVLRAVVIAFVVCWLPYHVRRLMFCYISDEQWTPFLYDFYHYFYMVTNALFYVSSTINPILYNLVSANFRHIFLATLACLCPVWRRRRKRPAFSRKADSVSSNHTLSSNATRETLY
Angiotensin AT1 receptor (Human), sequence (P30556 whole entry): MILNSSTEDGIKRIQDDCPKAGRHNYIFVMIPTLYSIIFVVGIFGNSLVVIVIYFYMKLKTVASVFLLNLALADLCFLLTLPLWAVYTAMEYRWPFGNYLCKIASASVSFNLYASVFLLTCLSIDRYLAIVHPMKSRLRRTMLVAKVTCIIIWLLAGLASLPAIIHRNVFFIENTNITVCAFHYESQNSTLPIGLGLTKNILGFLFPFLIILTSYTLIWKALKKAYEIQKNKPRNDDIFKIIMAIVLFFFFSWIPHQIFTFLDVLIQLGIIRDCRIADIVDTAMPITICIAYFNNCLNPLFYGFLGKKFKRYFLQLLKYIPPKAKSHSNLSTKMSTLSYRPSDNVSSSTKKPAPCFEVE

Q: How did the “Inhibition by l-Menthol (%)” value [1] turn out when `CC(C)[C@@H]1CC[C@@H](C)C[C@H]1O` [l-menthol] was run?
A: 28.19%

Q: And the “Inhibition by l-Menthol (%)” value [2]?
A: 24.78%

Q: What about the “Inhibition by l-Menthol (%)” value [3] of the same compound?
A: 21.87%

Q: What about the “Concentration dependence of inhibition of the [3H]-EBOB binding” value [4] of the same compound?
A: concentration-dependent

Q: And the “Inhibition by l-Menthol (%)” value ([4]; 0.1 mM l-menthol, Rat cerebral cortex)?
A: 20.9%

Q: What about the IC50 ([4]; read-out: IC50 for inhibition of the [3H]-EBOB binding, rat cerebral cortex preparation, 7 concentrations, duplicate) of the same compound?
A: 554 µM

Q: What about the Ki ([4]; read-out: Ki (mol/L), inhibition of the binding of [3H]-EBOB, GABAA (Picrotoxin site), Ki=IC50/(1+[L/Kd])) of the same compound?
A: 0.000288 mol/L

Q: And the “Inhibition by l-Menthol (%)” value [5]?
A: 16.92%

Q: And the “Inhibition by l-Menthol (%)” value [6]?
A: 13.53%

Q: What about the “Inhibition by l-Menthol (%)” value [7] of the same compound?
A: 9.12%

Q: What about the “Inhibition by l-Menthol (%)” value [8] of the same compound?
A: 8.57%

Q: What about the “Inhibition by l-Menthol (%)” value [9] of the same compound?
A: 7.89%

Q: And the “Inhibition by l-Menthol (%)” value [10]?
A: 7.88%

Q: And the “Inhibition by l-Menthol (%)” value (Monoamine transporter)?
A: 7.73%

Q: What about the “Inhibition by l-Menthol (%)” value [11] of the same compound?
A: 6.32%

Q: And the “Inhibition by l-Menthol (%)” value [12]?
A: 6.12%

Q: And the “Inhibition by l-Menthol (%)” value [13]?
A: 4.65%

Q: What about the “Inhibition by l-Menthol (%)” value (CCK B receptor (Human)) of the same compound?
A: 3.31%

Q: And the “Inhibition by l-Menthol (%)” value (K Channel SkCa)?
A: 2.36%

Q: What about the “Inhibition by l-Menthol (%)” value [14] of the same compound?
A: 1.83%

Q: And the “Inhibition by l-Menthol (%)” value (α1B-Adrenergic receptor)?
A: 1.76%

Q: What about the “Inhibition by l-Menthol (%)” value [15] of the same compound?
A: 0.66%

Q: And the “Inhibition by l-Menthol (%)” value [16]?
A: 0.3%

Q: And the “Inhibition by l-Menthol (%)” value [17]?
A: 0.2%

Q: And the “Inhibition by l-Menthol (%)” value [18]?
A: 0%

Q: What about the “Inhibition by l-Menthol (%)” value [19] of the same compound?
A: 0%

Q: What about the “Inhibition by l-Menthol (%)” value (Ca Channel (Type N)) of the same compound?
A: 0%

Q: And the “Inhibition by l-Menthol (%)” value (CCK A receptor (Human))?
A: 0%

Q: What about the “Inhibition by l-Menthol (%)” value (CRF1 receptor (Human)) of the same compound?
A: 0%

Q: And the “Inhibition by l-Menthol (%)” value [20]?
A: 0%

Q: What about the “Inhibition by l-Menthol (%)” value [21] of the same compound?
A: 0%

Q: What about the “Inhibition by l-Menthol (%)” value [22] of the same compound?
A: 0%

Q: And the “Inhibition by l-Menthol (%)” value [23]?
A: 0%

Q: What about the “Inhibition by l-Menthol (%)” value [24] of the same compound?
A: 0%

Q: What about the “Inhibition by l-Menthol (%)” value [25] of the same compound?
A: 0%

Q: What about the “Inhibition by l-Menthol (%)” value [26] of the same compound?
A: 0%

Q: And the “Inhibition by l-Menthol (%)” value [27]?
A: 0%

Q: What about the “Inhibition by l-Menthol (%)” value (PAF receptor) of the same compound?
A: 0%

Q: And the “Inhibition by l-Menthol (%)” value (Vasopressin V1 receptor)?
A: 0%

Q: And the “Inhibition by l-Menthol (%)” value [28]?
A: 0%
